From patent US20070254882A1, “Sulfamide Derivatives and Pharmaceutical Composition for Upregulation of Lipid Metabolism Comprising Same” (CRYSTAL GENOMICS, INC., priority 2004, published 2007)

Target: T1, human PPAR α (Homo sapiens, UniProt Q07869)
T1 construct: expressed in transfected cells; host or cells: HepG2 (ATCC HB-8065) or 293T cells (ATCC CRL-1573)
T1 sequence (Q07869 239-466 limits assumed): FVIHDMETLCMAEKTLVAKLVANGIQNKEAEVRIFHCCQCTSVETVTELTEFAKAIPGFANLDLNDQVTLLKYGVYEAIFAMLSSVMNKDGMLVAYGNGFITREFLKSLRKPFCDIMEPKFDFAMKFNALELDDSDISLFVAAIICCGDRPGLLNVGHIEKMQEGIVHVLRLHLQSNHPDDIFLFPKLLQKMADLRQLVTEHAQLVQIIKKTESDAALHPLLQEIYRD
Experiment: Exogeneous PPAR α agonist assay (GAL4 DNA binding domain/PPAR α ligand binding domain, luciferase) in 293T cells
Assay type: cell-based
Set-up: scale not given here
Details: 25 μM compound, 48 hours, luciferase activity increase relative to the control
Method: Step 1) Exogeneous PPAR α Agonist Assay
Cross-activation assay of the compounds of Examples 1 to 134 against human PPAR α was carried out using a DNA construct of PPAR α including its ligand binding domain and GAL4 DNA binding domain (Sher et al., Biochemistry 32, 5598-5604, 1993) to analyze whether any of the compounds binds to the ligand binding domain of PPAR α expressed by the construct to affect the PPAR α activity. When the GAL4 DNA binding domainm which is fused with PPAR α ligand binding domain, binds to UAS (upstream activation sequence) of firefly-luciferase, the luciferase is expressed. Therefore, the effect of each of the compounds of Examples on PPAR α activation can be evaluated by analyzing the activation of luciferase.
Specifically, 2×10^4 of HepG2 (ATCC HB-8065) or 293T cells (ATCC CRL-1573) were aliquotted into each well of a 96-well plate and cultured for overnight at 37° C. in a CO2 incubator (culture condition: DMEM, 10% FBS and 1% antibiotics).
The transformation of PPAR α DNA was traced as follows. First, a mixture of the following ingredients in amounts per well; Solution A (Promega) containing 50 ng of full length human PPAR α DNA, 50 ng of firefly-luciferase construct, 5 ng of Renilla-luciferase construct, 1.0 μl of PLUS™ reagent, and 8.3 μl of a serum-free medium containing no antibiotics; was prepared and kept at room temperature for 15 min. Solution B, which contained 0.5 μl of Lipofectamine™ reagent and 9.5 μl of serum-free medium without antibiotics per well, and Solution C, which contained 50 μl of serum-free medium per well), were prepared. Solutions A, B and C were mixed together to prepare lipofectamin-DNA complex, and the mixture was kept at room temperature for 15 min. Single layer of cells on each well of a 96-well plate were washed with serum-free DMEM, 70 μl of lipofectamine-DNA complex prepared above was added thereto, the plate was incubated at 37° C. in a 5% CO2 incubator for 3 hours to transform the cells, and […] of a diluted solution of each of the compounds of Examples 1 to 134 per well was added to each well to a final concentration 25 μM, and incubated at 37° C. in a CO2 incubator for 48 hours. Then, the medium was removed, 50 μl of passive lysis buffer (Promega) was added thereto, and the plate was shook at room temperature for 20 min to lysis cells. 40 μl of Luciferase Assay reagent of Dual Luciferase Kit […] per 20 μl of cell lysis buffer was added to the plate, followed by reacting at 20° C. for 8 seconds, and 40 μl of Stop & Glo reagent (Promega) as a stop solution was added thereto to quench the reaction. The luminescence intensities of F-luciferase and R-luciferase were measured with MicroLumat Plus (Berthord Technology).

Activity at 25 μM Step 1 293T cell, 3:
Cc1oc(-c2ccccc2)nc1CCOc1ccc(CN(CC(=O)O)S(=O)(=O)N(C)c2ccc(Cl)cc2)cc1 [Example 109, [N—[[N-methyl-N-(4-chlorophenyl)]amino]sulfonyl-N-[4-[2-(2-phenyl-5-methyloxazol-4-yl)ethoxy]benzyl]amino]acetic acid]
Cc1ccc(-c2nc(CCOc3ccc(CN(CC(=O)O)S(=O)(=O)N4CCc5ccccc54)cc3)c(C)o2)cc1 [Example 117, [N-(indolinyl)sulfonyl-N-[4-[2-[2-(4-methylphenyl)-5-methyloxazol-4-yl]ethoxy]benzyl]amino]acetic acid]

Activity at 25 μM Step 1 293T cell, 1:
Cc1oc(-c2ccc(C(F)(F)F)cc2)nc1CCOc1cccc(CN(CC(=O)O)S(=O)(=O)NC(C)(C)C)c1 [Example 66, [N—(N-t-butylamino)sulfonyl-N-[3-[2-[2-(4-trifluoromethylphenyl)-5-methyloxazol-4-yl]ethoxy]benzyl]amino]acetic acid]
Cc1ccc(-c2nc(CCOc3cccc(CN(CC(=O)O)S(=O)(=O)N4CCCC4)c3)c(C)o2)cc1 [Example 84, [N-(pyrrolidinyl)sulfonyl-N-[3-[2-[2-(4-methylphenyl)-5-methyloxazol-4-yl]ethoxy]benzyl]amino]acetic acid]
Cc1oc(-c2ccc(C(F)(F)F)cc2)nc1CCOc1cccc(CN(CC(=O)O)S(=O)(=O)N2CCCC2)c1 [Example 85, [N-(pyrrolidinyl)sulfonyl-N-[3-[2-[2-(4-trifluoromethylphenyl)-5-methyloxazol-4-yl]ethoxy]benzyl]amino]acetic acid]
Cc1oc(-c2ccc(C(F)(F)F)cc2)nc1CCOc1cccc(CN(CC(=O)O)S(=O)(=O)N2CCOCC2)c1 [Example 87, [N-(morpholinyl)sulfonyl-N-[3-[2-[2-(4-trifluoromethylphenyl)-5-methyloxazol-4-yl]ethoxy]benzyl]amino]acetic acid]
Cc1ccc(-c2nc(CCOc3cccc(CN(CC(=O)O)S(=O)(=O)N4CCN(C)CC4)c3)c(C)o2)cc1 [Example 88, [N-(4-methyl-1-piperazinyl)sulfonyl-N-[3-[2-[2-(4-methylphenyl)-5-methyloxazol-4-yl]ethoxy]benzyl]amino]acetic acid]
Cc1oc(-c2ccc(C(F)(F)F)cc2)nc1CCOc1cccc(CN(CC(=O)O)S(=O)(=O)N2CCN(C)CC2)c1 [Example 89, [N-(4-methyl-1-piperazinyl)sulfonyl-N-[3-[2-[2-(4-trifluoromethylphenyl)-5-methyloxazol-4-yl]ethoxy]benzyl]amino]acetic acid]
Cc1oc(-c2ccccc2)nc1CCOc1ccc(CN(CC(=O)O)S(=O)(=O)N(C)C)cc1 [Example 98, [N—(N,N-dimethylamino)sulfonyl-N-[4-[2-(2-phenyl-5-methyloxazol-4-yl)ethoxy]benzyl]amino]acetic acid]
Cc1oc(-c2cccs2)nc1CCOc1ccc(CN(CC(=O)O)S(=O)(=O)N(C)C)cc1 [Example 104, [N—(N,N-dimethylamino)sulfonyl-N-[4-[2-[2-(thiophen-2-yl)-5-methyloxazol-4-yl]ethoxy]benzyl]amino]acetic acid]

Activity at 25 μM Step 1 293T cell, 2:
Cc1oc(-c2cccs2)nc1CCOc1cccc(CN(CC(=O)O)S(=O)(=O)N(C)C)c1 [Example 72, [N—(N,N-dimethylamino)sulfonyl-N-[3-[2-[2-(thiophen-2-yl)-5-methyloxazol-4-yl]ethoxy]benzyl]amino]acetic acid]
Cc1ccc(-c2nc(CCOc3cccc(CN(CC(=O)O)S(=O)(=O)N4CCOCC4)c3)c(C)o2)cc1 [Example 86, [N-(morpholinyl)sulfonyl-N-[3-[2-[2-(4-methylphenyl)-5-methyloxazol-4-yl]ethoxy]benzyl]amino]acetic acid]
Cc1oc(-c2ccccc2)nc1CCOc1cccc(CN(CC(=O)O)S(=O)(=O)N2CCCc3ccccc32)c1 [Example 94, [N-(1,2,3,4-tetrahydroquinolinyl)sulfonyl-N-[3-[2-(2-phenyl-5-methyloxazol-4-yl)ethoxy]benzyl]amino]acetic acid]
Cc1ccc(-c2nc(CCOc3ccc(CN(CC(=O)O)S(=O)(=O)N(C)C)cc3)c(C)o2)cc1 [Example 99, [N—(N,N-dimethylamino)sulfonyl-N-[4-[2-[2-(4-methylphenyl)-5-methyloxazol-4-yl]ethoxy]benzyl]amino]acetic acid]
Cc1ccc(-c2nc(CCOc3ccc(CN(CC(=O)O)S(=O)(=O)NC(C)(C)C)cc3)c(C)o2)cc1 [Example 100, [N—(N-t-butylamino)sulfonyl-N-[4-[2-[2-(4-methylphenyl)-5-methyloxazol-4-yl]ethoxy]benzyl]amino]acetic acid]
Cc1oc(-c2ccc(C(F)(F)F)cc2)nc1CCOc1ccc(CN(CC(=O)O)S(=O)(=O)N(C)C)cc1 [Example 103, [N—(N,N-dimethylamino)sulfonyl-N-[4-[2-[2-(4-trifluoromethylphenyl)-5-methyloxazol-4-yl]ethoxy]benzyl]amino]acetic acid]
Cc1oc(-c2ccccc2)nc1CCOc1ccc(CN(CC(=O)O)S(=O)(=O)N(C)c2ccccc2)cc1 [Example 105, [N—[(N-methyl-N-phenyl)amino]sulfonyl-N-[4-[2-(2-phenyl-5-methyloxazol-4-yl)ethoxy]benzyl]amino]acetic acid]
Cc1ccc(-c2nc(CCOc3ccc(CN(CC(=O)O)S(=O)(=O)N(C)c4ccccc4)cc3)c(C)o2)cc1 [Example 106, [N—[(N-methyl-N-phenyl)amino]sulfonyl-N-[4-[2-[2-(4-methylphenyl)-5-methyloxazol-4-yl]ethoxy]benzyl]amino]acetic acid]
Cc1oc(-c2cccs2)nc1CCOc1ccc(CN(CC(=O)O)S(=O)(=O)N(C)c2ccccc2)cc1 [Example 108]
Cc1ccc(-c2nc(CCOc3ccc(CN(CC(=O)O)S(=O)(=O)N(C)c4ccc(Cl)cc4)cc3)c(C)o2)cc1 [Example 110, [N—[[N-methyl-N-(4-chlorophenyl)]amino]sulfonyl-N-[4-[2-[2-(4-methylphenyl)-5-methyloxazol-4-yl]ethoxy]benzyl]amino]acetic acid]
Cc1oc(-c2ccc(C(F)(F)F)cc2)nc1CCOc1ccc(CN(CC(=O)O)S(=O)(=O)N(C)c2ccc(Cl)cc2)cc1 [Example 114, [N—[[N-methyl-N-(4-chlorophenyl)]amino]sulfonyl-N-[4-[2-[2-(4-trifluoromethylphenyl)-5-methyloxazol-4-yl]ethoxy]benzyl]amino]acetic acid]
Cc1oc(-c2cccs2)nc1CCOc1ccc(CN(CC(=O)O)S(=O)(=O)N(C)c2ccc(Cl)cc2)cc1 [Example 115, [N—[[N-methyl-N-(4-chlorophenyl)]amino]sulfonyl-N-[4-[2-[2-(thiophen-2-yl)-5-methyloxazol-4-yl]ethoxy]benzyl]amino]acetic acid]
Cc1oc(-c2ccccc2)nc1CCOc1ccc(CN(CC(=O)O)S(=O)(=O)N2CCc3ccccc32)cc1 [Example 116]
Cc1oc(-c2ccc(C(F)(F)F)cc2)nc1CCOc1ccc(CN(CC(=O)O)S(=O)(=O)N2CCc3ccccc32)cc1 [Example 118, [N-(indolinyl)sulfonyl-N-[4-[2-[2-(4-trifluoromethylphenyl)-5-methyloxazol-4-yl]ethoxy]benzyl]amino]acetic acid]
